Article PMC12569658, “An Orally Administered Misuse Deterrent Opioid Prodrug for Treatment of Acute Pain” (JACS Au, 2025)

What was measured:
C57BL/6J mice [1] = conditions: IP injection of oxycodone; ref previous reports (reference numbers not printed); cited from earlier work
Source text: To confirm that this analgesic effect was due to enzymatic degradation of the prodrug in the digestive system, the antinociceptive effects of prodrug 20 were examined following systemic intraperitoneal (IP) injection.

chymotrypsin and trypsin [2] = test: Michaelis-Menten kinetics of pNP release in the presence of both chymotrypsin and trypsin; type: biochemical; conditions: for Km / VMax / kCat/KM (substrate specificity): chymotrypsin and trypsin 0.02 mM each, substrate 0.1-2.0 mM, 35 mM HEPES pH 7.5, 37 °C, absorbance 405 nm, average of n = 3
Source text: In order to ensure the prodrug would be cleaved effectively once it was exposed to chymotrypsin and trypsin in concentrations found in the […], we elected to optimize the peptide sequence further, particularly on the ε-amine of the lysine, to enhance the substrate efficiency (Figure B). This would help to ensure that oxycodone is released in the gastrointestinal tract. […] Previous studies have shown that chymotrypsin binding can be enhanced through additional nonbulky amino acid groups following the aromatic residue. ,− Accordingly, substrates 9 and 10, with alanine residues coupled to phenylalanine, were prepared, and their kinetics were examined. […] Coupling a third alanine to the tyrosine residue (12) increased the substrate specificity by around 5-fold compared to 11. Since coupling of alanine residues to the α-amine of 6–8 increased the percentage of pNP release (Figure A), 13 with a single alanine on the N-terminus was prepared. Compared to substrate 11 with no N-terminal alanine, there was a minimal effect on the K M, but the V Max was reduced by half, leading to a lower k Cat/K M. Since 12 had the highest k Cat/K M and the fastest V Max, we proceeded to use this peptide scaffold for further experiments. […]
(§1) General Procedure – Michaelis-Menten Kinetics […]
(§2) substrate concentration of 2.0, 1.5, 1.0, 0.5, 0.24, and 0.1 mM, maintaining a constant concentration of DMSO across all conditions. These solutions were then combined with chymotrypsin and trypsin to afford a final concentration of 0.02 mM for each enzyme. Immediately upon addition of the proteases, the 96-well plate was inserted into the plate reader and the absorbance at 405 nm was monitored over the course of 4 ho urs with time points taken every 30 seconds. The plate was incubated in the plate reader at 37 °C. All conditions were carried out in triplicate and reported as the average between the three replicates. Michaelis -Menten enzyme kinetic analysis was carried out using GraphPad Prism 8.4.3. Substrate concentrations were adjusted as needed to obtain relevant Michaelis -Menten statistics. Concentrations of substrate are shown in their respective activity plots below.

chymotrypsin and trypsin [3] = test: In vitro simulated digestion (pNP release) assay with trypsin, chymotrypsin or both enzymes; type: biochemical; conditions: substrate 1.5 mM, 35 mM HEPES pH 7.5, 37 °C, n = 3
Procedure: We hypothesized that by protecting the phenol with a tert-butyl ether, chymotrypsin would not recognize the tyrosine derivative prior to passage through the acidic conditions in the stomach where the tert-butyl ether would be removed. This additional security measure removes the ability to pretreat the prodrug with store-bought digestive enzyme supplements to release the opioid.
General Procedure – Release Kinetics
(§3) The peptide was dissolved in DMSO and diluted using 35 mM HEPES buffer (pH 7.5) to a final substrate concentration of 1.5 mM, maintaining a constant concentration of DMSO across all conditions. These solutions were then combined with either chymotrypsin, trypsin, or both enzymes to afford a final concentration of 0.02 mM for each enzyme. Immediately upon addition of the proteases, the 96-well plate was inserted into the plate reader and the absorbance at 405 nm was monitored over the course of 4 hours with time points taken every 30 seconds. The plate was incubated in the plate reader at 37 °C.
as §1, §2

C57BL/6J mice [4] = test: Hot plate latency after intraperitoneal injection; type: in vivo, mouse; conditions: 30 mg/kg of oxycodone in prodrug, 55 °C hot plate, n = 6, ns vs water
chymotrypsin and trypsin [5] = test: Michaelis-Menten competitive inhibition release assay of 12 with peptide byproduct 19; type: biochemical; conditions: 19 at 1.6, 0.8, 0.4 or 0.2 mM; 12 at 0.1-2.0 mM; chymotrypsin and trypsin 0.02 mM each; 35 mM HEPES pH 7.5; n = 3
Source text: Prior to moving forward with analgesia studies in vivo, it was important to ensure that the AAAY (19) peptide byproduct from chymotrypsin cleavage was not competitively inhibiting the pNP release. This could be an issue in vivo, as the PEPT1 transepithelial transporter in the digestive tract has a very weak binding affinity for tetrapeptides. A lack of transport for 19 could lead to the accumulation and generation of a competitive inhibitor for chymotrypsin, thus reducing the overall amount of opioid released. To examine this hypothesis, Michaelis–Menten competitive inhibition enzyme kinetics were performed with chymotrypsin and trypsin for 12 in the presence of peptide 19. […] These observations enhanced our confidence in using the 12 prodrug scaffold for in vivo analgesia studies.
Competitive Inhibition Release Assay
12 was dissolved in DMSO and diluted using 35 mM HEPES buffer (pH 7.5) to a final substrate concentration of 2.0, 1.5, 1.0, 0.5, 0.24, and 0.1 mM, maintaining a constant concentration of DMSO across all conditions. 19 was added to yield a final concentration of either 1.6, 0.8, 0.4, or 0.2 mM. […] Immediately upon addition of the proteases, the 96 - well plate was inserted into the plate reader and the absorbance at 405 nm was monitored over the course of 4 hours. […]

chymotrypsin = target: T1, chymotrypsin (Bos taurus, UniProt P00766); test: pNP release assay in the presence of chymotrypsin only; type: biochemical; conditions: chymotrypsin only 0.02 mM, substrate 1.5 mM, 35 mM HEPES pH 7.5, 37 °C, absorbance 405 nm, over 4 h
T1 construct: purchased
Source text: Using the branched lysine peptide sequences modified from our previous work, we began to explore the sequence effects on the efficiency and release rate of a model reporter molecule, p-nitrophenol (pNP). Peptides 6–8 were initially prepared to determine whether the peptide backbone length had any effect on the release of pNP in the presence of chymotrypsin alone (Figure A; see Supporting Information (SI) for synthetic procedures). Chymotrypsin promiscuity (i.e., cleavage of both sites) could lead to less misuse deterrence as only one enzyme could promote the release of the opioid. […] However, substrate 8 reached greater than 90% pNP release within 3 h (Figures A and S15). […]
as §3, with “These solutions were then combined with either chymotrypsin, trypsin, or both enzymes to afford a final concentration of 0.02 mM for each enzyme.” left out, “°C. […]” for “°C.”
substrate concentration of 2.0, 1.5, 1.0, 0.5, 0.24, and 0.1 mM, maintaining a constant concentration of DMSO across all conditions. […] The plate was incubated in the plate reader at 37 °C. […]

Row | Compound | Km (chymotrypsin and trypsin [2]) | VMax (chymotrypsin and trypsin [2]) | other results
1 | COc1ccc2c3c1O[C@H]1C(=O)CC[C@@]4(O)[C@@H](C2)N(C)CC[C@]314 [oxycodone] |  |  | analgesic effect after IP injection (C57BL/6J mice [1]): there is an analgesic effect
2 | Ac-Ala-Lys[Tyr-Ala-Ala]-(2-(pNP-thionocarbamate)methyl)ethylamino trifluoroacetate [compound 13] | 4160 µM | 0.119 µM/s | 
3 | Ac-Lys[Phe-Ala-Ala]-(2-(pNP-thionocarbamate)methyl)ethylamino trifluoroacetate [compound 10] | 1970 µM | 0.225 µM/s | kCat/KM (substrate specificity) (chymotrypsin and trypsin [2]): 5.73 × 10^–6 μM^-1s^-1
4 | Ac-Lys[Phe-Ala]-(2-(pNP-thionocarbamate)methyl)ethylamino trifluoroacetate [compound 9] | 1420 µM | 0.021 µM/s | 
5 | Ac-Lys[Tyr(tBu)-Ala-Ala-Ala]-(2-(pNP-thionocarbamate)methyl)ethylamino trifluoroacetate [compound 14] |  |  | pNP release over 150 min (chymotrypsin and trypsin [3]; both chymotrypsin and trypsin 0.02 mM each, absorbance 405 nm, 150 min, no acidic pretreatment): ~5%
6 | Ac-Lys[Tyr-Ala-Ala-Ala]-(2-(oxycodone-thionocarbamate)methyl)ethylamino ditrifluoroacetate [compound 20] |  |  | withdrawal threshold (hot plate) latency after IP injection (C57BL/6J mice [4]): did not alleviate acute pain
7 | Ac-Lys[Tyr-Ala-Ala-Ala]-(2-(pNP-thionocarbamate)methyl)ethylamino trifluoroacetate [compound 12] | 2350 µM | 0.749 µM/s | increase of substrate specificity (kCat/KM) compared to 11 (chymotrypsin and trypsin [2]; chymotrypsin and trypsin, relative to 11): around 5 fold; pNP release at which the simulated digestion assay stagnated (chymotrypsin and trypsin [3]; both chymotrypsin and trypsin 0.02 mM each, absorbance 405 nm, plateau): ~30%; enzyme requirement for pNP release (chymotrypsin and trypsin [3]; trypsin, chymotrypsin, or both enzymes, 0.02 mM each): only observed in the presence of both proteolytic enzymes
8 | Ac-Lys[Tyr-Ala-Ala]-(2-(pNP-thionocarbamate)methyl)ethylamino trifluoroacetate [compound 11] | 4000 µM | 0.276 µM/s | 
9 | Ala-Ala-Ala-Tyr trifluoroacetate [compound 19] |  |  | competitive inhibition of pNP release from 12 (chymotrypsin and trypsin [5]): negligibly affected
10 | Ala-Lys[(Ac)Phe]-(2-(pNP-thionocarbamate)methyl)ethylamino trifluoroacetate [compound 7] | 941 µM | 0.019 µM/s | kCat/KM (substrate specificity) (chymotrypsin and trypsin [2]): 9.97 × 10^–7 μM^-1s^-1; pNP release over the course of 4 h, chymotrypsin alone (chymotrypsin): less than 15%
